The values that follow are results of earlier work, collected in US20110189166A1, “METHODS OF TREATING HEMORHEOLOGIC ABNORMALITIES IN MAMMALS” (priority 2010, published 2011).

The test system of series [1] is crenated or spiculated red blood cells (echinocytes). The note with it: horses, after exercise; U.S. Pat. No. 4,383,997.
Series [2] relates to human erythrocytes. The note with it: red blood cells exposed to LPA.
For series [3], the system named is flippase. The following applies: independent of excess intracellular calcium. (A change in cytosolic calcium serves as a functional read-out for many receptors and channels.)
The subject of series [4] is aminophospholipid translocase (flippase). The note with it: by complexing a sulfhydryl group.
Series [5] concerns cows. The note with it: inorganic phosphate for 2-5 days.
The test system of series [6] is red blood cell. The note with it: in vitro.

Turning to `CC(=O)CCCCn1c(=O)c2c(ncn2C)n(C)c1=O` [pentoxyfylline], the “increase of crenated red blood cells following exercise” value in series [1] is “inhibit the increase of crenated red blood cells following exercise”.

For the molecule Lysophosphatidic acid [LPA], in series [2], the “PS exposure on red blood cells” value was “resulted in PS exposure”, the “adherence to endothelial cells” value is listed as “increased adherence to endothelial cells” and the thrombin generation entry is on record as “potentiated thrombin generation”. For the same molecule, the flippase inhibition entry in series [3] is “inhibit flippase directly”.

Turning to `CCN1C(=O)C=CC1=O` [NEM, N-ethylmaleimide], the “activity of aminophospholipid translocase (flippase)” value in series [4] was “blocks the activity of aminophospholipid translocase (flippase)”.

For `O=P(O)(O)O` [inorganic phosphate], in series [5], the hemolysis after treatment entry is on record as “absence of hemolysis” and the “time to complete recovery” value was 14 to 21 days.

For the molecule `CCCC(=O)Nc1ncnc2c1ncn2[C@@H]1O[C@@H]2COP(=O)(O)O[C@H]2[C@H]1OC(=O)CCC` [dibutyryl-cAMP], in series [6], the PS exposure result was “prevents PS exposure”, the intracellular calcium entry result is recorded as “inhibits intracellular calcium entry” and the “reduction of red blood cell aggregation” value is recorded as “about 50%”.
